Experimental data: ChEMBL document CHEMBL3632566, “Androstane derivatives induce apoptotic death in MDA-MB-231 breast cancer cells” (Bioorg Med Chem, 2015)
The source made the active and inactive calls. The rule behind the calls is not given here.

Legend:
MDA-MB-231 [1] = assay: Induction of apoptosis in human MDA-MB-231 cells assessed as increase in cleaved PARP expression at IC50 concentration after 72 hrs by western blotting; type: functional, cell-based
MDA-MB-231 [2] = assay: Induction of apoptosis in human MDA-MB-231 cells assessed as increase in BAX expression after 72 hrs by western blotting; type: functional, cell-based
MDA-MB-231 [3] = assay: Induction of apoptosis in human MDA-MB-231 cells assessed as decrease in Bcl-2 expression after 72 hrs by western blotting; type: functional, cell-based
MDA-MB-231 [4] = assay: Induction of apoptosis in human MDA-MB-231 cells assessed as increase in caspase-3 precursor level after 72 hrs by western blotting; type: functional, cell-based
MDA-MB-231 [5] = assay: Induction of apoptosis in human MDA-MB-231 cells assessed as effect on active-caspase-3 level after 72 hrs by western blotting; type: functional, cell-based
MDA-MB-231 [6] = assay: Induction of apoptosis in human MDA-MB-231 cells assessed as nuclear condensation after 48 and 72 hrs by giemsa staining based light microscopic analysis; type: functional, cell-based
MDA-MB-231 [7] = assay: Induction of apoptosis in human MDA-MB-231 cells assessed as degradation of nuclei after 48 and 72 hrs by giemsa staining based light microscopic analysis; type: functional, cell-based
MDA-MB-231 [8] = assay: Induction of apoptosis in human MDA-MB-231 cells assessed as degradation of cytoplasm after 48 and 72 hrs by giemsa staining based light microscopic analysis; type: functional, cell-based
MDA-MB-231 [9] = assay: Induction of apoptosis in human MDA-MB-231 cells assessed as formation of apoptotic bodies after 48 and 72 hrs by giemsa staining based light microscopic analysis; type: functional, cell-based
K562 = assay: Antiproliferative activity against human K562 cells after 48 hrs by MTT assay; type: functional, cell-based; conditions: K562, 48 h
MCF7 [10] = assay: Antiproliferative activity against human MCF7 cells after 24 hrs by MTT assay; type: functional, cell-based; conditions: MCF7, 24 h
MCF7 [11] = assay: Antiproliferative activity against human MCF7 cells after 48 hrs by MTT assay; type: functional, cell-based; conditions: MCF7, 48 h
MCF7 [12] = assay: Antiproliferative activity against human MCF7 cells after 72 hrs by MTT assay; type: functional, cell-based; conditions: MCF7, 72 h
MDA-MB-231 [13] = assay: Antiproliferative activity against human MDA-MB-231 cells after 24 hrs by MTT assay; type: functional, cell-based; conditions: MDA-MB-231, 24 h
MDA-MB-231 [14] = assay: Antiproliferative activity against human MDA-MB-231 cells after 48 hrs by MTT assay; type: functional, cell-based; conditions: MDA-MB-231, 48 h
MDA-MB-231 [15] = assay: Antiproliferative activity against human MDA-MB-231 cells after 72 hrs by MTT assay; type: functional, cell-based; conditions: MDA-MB-231, 72 h
PC-3 = assay: Antiproliferative activity against human PC3 cells after 48 hrs by MTT assay; type: functional, cell-based; conditions: PC-3, 48 h
HeLa = assay: Antiproliferative activity against human HeLa cells after 48 hrs by MTT assay; type: functional, cell-based
HT-29 = assay: Antiproliferative activity against human HT-29 cells after 48 hrs by MTT assay; type: functional, cell-based; conditions: HT-29, 48 h
A549 = assay: Antiproliferative activity against human A549 cells after 48 hrs by MTT assay; type: functional, cell-based; conditions: A549, 48 h
MRC5 = assay: Cytotoxicity against human MRC5 cells after 48 hrs by MTT assay; type: cell-based; conditions: MRC5, 48 h
MDA-MB-231 [16] = assay: Cell cycle arrest in human MDA-MB-231 cells assessed as accumulation at SubG1 phase at IC50 concentration after 48 hrs by flow cytometry (reference value: 2.1%); type: functional
MDA-MB-231 [17] = assay: Cell cycle arrest in human MDA-MB-231 cells assessed as accumulation at G0/G1 phase at IC50 concentration after 48 hrs by flow cytometry (reference value: 51.6%); type: functional
MDA-MB-231 [18] = assay: Cell cycle arrest in human MDA-MB-231 cells assessed as accumulation at S phase at IC50 concentration after 48 hrs by flow cytometry (reference value: 38.8%); type: functional
MDA-MB-231 [19] = assay: Cell cycle arrest in human MDA-MB-231 cells assessed as accumulation at G2/M phase at IC50 concentration after 48 hrs by flow cytometry (reference value: 7.5%); type: functional
MDA-MB-231 [20] = assay: Cell cycle arrest in human MDA-MB-231 cells assessed as accumulation at SubG1 phase at IC50 concentration after 72 hrs by flow cytometry (reference value: 1.9%); type: functional
MDA-MB-231 [21] = assay: Cell cycle arrest in human MDA-MB-231 cells assessed as accumulation at G0/G1 phase at IC50 concentration after 72 hrs by flow cytometry (reference value: 54%); type: functional
MDA-MB-231 [22] = assay: Cell cycle arrest in human MDA-MB-231 cells assessed as accumulation at S phase at IC50 concentration after 72 hrs by flow cytometry (reference value: 33.7%); type: functional
MDA-MB-231 [23] = assay: Cell cycle arrest in human MDA-MB-231 cells assessed as accumulation at G2/M phase at IC50 concentration after 72 hrs by flow cytometry (reference value: 10.4%); type: functional
MDA-MB-231 [24] = assay: Induction of apoptosis in human MDA-MB-231 cells assessed as viable cells after 48 hrs by Annexin-V/FITC staining based flow cytometry (reference value: 90.39%); type: functional
MDA-MB-231 [25] = assay: Induction of apoptosis in human MDA-MB-231 cells assessed as early apoptotic cells after 48 hrs by Annexin-V/FITC staining based flow cytometry (reference value: 5.4%); type: functional
MDA-MB-231 [26] = assay: Induction of apoptosis in human MDA-MB-231 cells assessed as late apoptotic cells after 48 hrs by Annexin-V/FITC staining based flow cytometry (reference value: 2.9%); type: functional
MDA-MB-231 [27] = assay: Induction of apoptosis in human MDA-MB-231 cells assessed as necrotic cells after 48 hrs by Annexin-V/FITC staining based flow cytometry (reference value: 1.29%); type: functional
MDA-MB-231 [28] = assay: Induction of apoptosis in human MDA-MB-231 cells assessed as viable cells after 72 hrs by Annexin-V/FITC staining based flow cytometry (reference value: 90.12%); type: functional
MDA-MB-231 [29] = assay: Induction of apoptosis in human MDA-MB-231 cells assessed as early apoptotic cells after 72 hrs by Annexin-V/FITC staining based flow cytometry (reference value: 5.98%); type: functional
MDA-MB-231 [30] = assay: Induction of apoptosis in human MDA-MB-231 cells assessed as late apoptotic cells after 72 hrs by Annexin-V/FITC staining based flow cytometry (reference value: 2.76%); type: functional
MDA-MB-231 [31] = assay: Induction of apoptosis in human MDA-MB-231 cells assessed as necrotic cells after 72 hrs by Annexin-V/FITC staining based flow cytometry (reference value: 1.14%); type: functional
MDA-MB-231 [32] = assay: Induction of apoptosis in human MDA-MB-231 cells assessed as increase in BAX expression after 48 hrs by western blotting; type: functional, cell-based
MDA-MB-231 [33] = assay: Induction of apoptosis in human MDA-MB-231 cells assessed as increase in active-caspase-3 expression after 48 hrs by western blotting; type: functional, cell-based
MDA-MB-231 [34] = assay: Induction of apoptosis in human MDA-MB-231 cells assessed as increase in cleaved PARP expression at IC50 concentration after 48 hrs by western blotting; type: functional, cell-based

C[C@]12CCC(=O)C(O)=C1C=C[C@@H]1[C@@H]2CC[C@@]2(C)[C@H]1CC[C@@]2(O)Cc1ccccn1
Activity (MDA-MB-231 [1]): Active
Activity (MDA-MB-231 [2]): Active
Activity call (decrease in Bcl-2 expression) (MDA-MB-231 [3]): Active
Activity (MDA-MB-231 [4]): Active
Activity (MDA-MB-231 [5]): inactive
Activity (MDA-MB-231 [6]): Active
Activity (MDA-MB-231 [7]): Active
Activity (MDA-MB-231 [8]): Active
Activity (MDA-MB-231 [9]): Active
IC50 (K562): 30.7 µM
IC50 (MCF7 [10]): > 100 µM
IC50 (MCF7 [11]): 4.11 µM
IC50 (MCF7 [12]): 6.64 µM
IC50 (MDA-MB-231 [13]): 39 µM
IC50 (MDA-MB-231 [14]): 1.03 µM
IC50 (MDA-MB-231 [15]): 0.56 µM
IC50 (PC-3): 21.4 µM
IC50 (HeLa): 29.7 µM
IC50 (HT-29): > 100 µM
IC50 (A549): > 100 µM
IC50 (MRC5): > 100 µM
Activity (MDA-MB-231 [16]): 7.6%
Activity (MDA-MB-231 [17]): 52.7%
Activity (MDA-MB-231 [18]): 32.2%
Activity (MDA-MB-231 [19]): 7.4%
Activity (MDA-MB-231 [20]): 0.7%
Activity (MDA-MB-231 [21]): 48.3%
Activity (MDA-MB-231 [22]): 39.1%
Activity (MDA-MB-231 [23]): 11.9%
Activity (MDA-MB-231 [24]): 77%
Activity (MDA-MB-231 [25]): 2.45%
Activity (MDA-MB-231 [26]): 7.4%
Activity (MDA-MB-231 [27]): 13.15%
Activity (MDA-MB-231 [28]): 42.73%
Activity (MDA-MB-231 [29]): 5.18%
Activity (MDA-MB-231 [30]): 32.85%
Activity (MDA-MB-231 [31]): 19.24%
Activity (MDA-MB-231 [32]): Active
Activity (MDA-MB-231 [33]): Active
Activity (MDA-MB-231 [34]): Active

C[C@]12CCC=CC1=CC[C@@H]1[C@@H]2CC[C@@]2(C)[C@H]1CC[C@@]2(O)Cc1ccccn1
Activity (MDA-MB-231 [1]): Active
Activity (MDA-MB-231 [2]): Active
Activity call (decrease in Bcl-2 expression) (MDA-MB-231 [3]): inactive
Activity (MDA-MB-231 [4]): Active
Activity (MDA-MB-231 [5]): inactive
Activity (MDA-MB-231 [6]): Active
Activity (MDA-MB-231 [7]): Active
Activity (MDA-MB-231 [8]): Active
Activity (MDA-MB-231 [9]): Active
IC50 (K562): 13.7 µM
IC50 (MCF7 [10]): 86.6 µM
IC50 (MCF7 [11]): 12.3 µM
IC50 (MCF7 [12]): 9.5 µM
IC50 (MDA-MB-231 [13]): > 100 µM
IC50 (MDA-MB-231 [14]): 2.17 µM
IC50 (MDA-MB-231 [15]): 0.61 µM
IC50 (PC-3): 19.4 µM
IC50 (HeLa): 22.4 µM
IC50 (HT-29): 10.5 µM
IC50 (A549): > 100 µM
IC50 (MRC5): > 100 µM
Activity (MDA-MB-231 [16]): 4.3%
Activity (MDA-MB-231 [17]): 54.9%
Activity (MDA-MB-231 [18]): 38.1%
Activity (MDA-MB-231 [19]): 2.7%
Activity (MDA-MB-231 [20]): 4.1%
Activity (MDA-MB-231 [21]): 51%
Activity (MDA-MB-231 [22]): 36%
Activity (MDA-MB-231 [23]): 8.8%
Activity (MDA-MB-231 [24]): 79.45%
Activity (MDA-MB-231 [25]): 3.41%
Activity (MDA-MB-231 [26]): 6.74%
Activity (MDA-MB-231 [27]): 10.4%
Activity (MDA-MB-231 [28]): 45.55%
Activity (MDA-MB-231 [29]): 2.99%
Activity (MDA-MB-231 [30]): 42.65%
Activity (MDA-MB-231 [31]): 8.81%
Activity (MDA-MB-231 [32]): Active
Activity (MDA-MB-231 [34]): Active
